In paper PMC4014698 (Pharmaceuticals, 2014):
≈ marks a conversion by molar mass, not a printed value. Non-standard residues stand in square brackets, D forms with d. Residues, ends and D or L forms follow the SMILES beside them.

Experiments:
A. baumannii strain 649 = assay: MIC, microtiter dilution; format: cell-based, Acinetobacter baumannii; settings: source blood; Mueller-Hinton medium, 37 °C, 24 h, 5 × 10^5 CFU/mL; three sets of determinations
Description: (§1) All the A. baumannii strains used in this study were (1) obtained from the collection of Dr. Anthony A. Campagnari at the University of Buffalo and originally isolated from different patients and organs/tissues (strain 649, blood; strain 689, groin; strain 759, gluteus; strain 821, urine; strain 884, axilla; strain 899, perineum; strain 964, throat; strain 985, pleural fluid and strain 1012, sputum); (2) were purchased from the American Type Culture Collection (ATCC, Manassas, VA, USA) (strain ATCC 17978, fatal meningitis; and strain ATCC 19606, urine).
(§2) The minimal inhibitory concentration (MIC) is defined as the lowest peptide concentration that inhibited bacterial growth. MICs were measured by a standard microtiter dilution method in Mueller Hinton (MH) medium. Briefly, cells were grown overnight at 37 °C in MH broth and were diluted in the same medium. Serial dilutions of the peptides were added to the microtiter plates in a volume of 50 µL, followed by the addition of 50 µL of bacteria to give a final inoculum of 5 × 10^5 colony-forming units (CFU)/mL. The plates were incubated at 37 °C for 24 h, and the MICs were determined.

A. baumannii strain 759 = assay: MIC, microtiter dilution; format: cell-based, Acinetobacter baumannii; settings: source gluteus; Mueller-Hinton medium, 37 °C, 24 h, 5 × 10^5 CFU/mL; three sets of determinations
Description: as §1, §2

A. baumannii strain 821 = assay: MIC, microtiter dilution; format: cell-based, Acinetobacter baumannii; settings: source urine; Mueller-Hinton medium, 37 °C, 24 h, 5 × 10^5 CFU/mL; three sets of determinations
Description: as §1, §2

A. baumannii strain 884 = assay: MIC, microtiter dilution; format: cell-based, Acinetobacter baumannii; settings: source axilla; Mueller-Hinton medium, 37 °C, 24 h, 5 × 10^5 CFU/mL; three sets of determinations
Description: as §1, §2

[1] = test system: A. baumannii strain ATCC 19606; assay: MIC, microtiter dilution; format: cell-based, Acinetobacter baumannii; settings: source urine; Mueller-Hinton medium, 37 °C, 24 h, 5 × 10^5 CFU/mL; three sets of determinations
Description: as §1, §2

A. baumannii strain 1012 = format: cell-based, Acinetobacter baumannii; settings: source sputum; Mueller-Hinton medium, 37 °C, 24 h, 5 × 10^5 CFU/mL; three sets of determinations
Description: as §1, §2

A. baumannii strain 689 = format: cell-based, Acinetobacter baumannii; settings: source groin; Mueller-Hinton medium, 37 °C, 24 h, 5 × 10^5 CFU/mL; three sets of determinations
Description: as §1, §2

A. baumannii strain 899 = format: cell-based, Acinetobacter baumannii; settings: source perineum; Mueller-Hinton medium, 37 °C, 24 h, 5 × 10^5 CFU/mL; three sets of determinations
Description: as §1, §2

A. baumannii strain 964 = format: cell-based, Acinetobacter baumannii; settings: source throat; Mueller-Hinton medium, 37 °C, 24 h, 5 × 10^5 CFU/mL; three sets of determinations
Description: as §1, §2

A. baumannii strain 985 = format: cell-based, Acinetobacter baumannii; settings: source pleural fluid; Mueller-Hinton medium, 37 °C, 24 h, 5 × 10^5 CFU/mL; three sets of determinations
Description: as §1, §2

[2] = test system: A. baumannii strain ATCC 17978; format: cell-based, Acinetobacter baumannii; settings: ATCC 17978, 24 h
Description: as §1, §2

[3] = test system: Acinetobacter baumannii (11 different isolates); format: cell-based; settings: geometric mean of the MIC values from 11 different isolates of A. baumannii; Table 3A
Description: as §1, §2
Antibacterial activities against six strains of P. aeruginosa and eleven strains of A. baumannii are compared in Table 3. Geometric mean of MIC values was calculated to provide an overall view of antimicrobial activity of different analogs. It is clear that our peptides were effective in killing the microorganisms tested. Compared to a dramatic reduction in hemolytic activity, antibacterial activity of D-piscidin 1 and D-dermaseptin S4 analogs against eleven strains of A. baumannii maintained the same level (within 2-fold) upon the substitution of “specificity determinant(s)” (Table 3).

[4] = test system: P. aeruginosa strain CP204; settings: source cystic fibrosis patient; Mueller-Hinton medium, 37 °C, 24 h, 5 × 10^5 CFU/mL; three sets of determinations
Description: (§3) P. aeruginosa strains used are as follows: strain PAO1 was isolated from a human wound in 1955 in Australia; strain WR5 was isolated from a burn patient at Walter Reed Army Hospital, Washington, DC, USA, in 1976 and is a natural toxA^− mutant, but is virulent in experimental mouse models; strain PAK was originally isolated at Memorial University, St. John’s, Newfoundland, Canada, and is widely used in the analysis of pili; strain PA14 was originally isolated as a clinical isolate in 1995 at the Massachusetts General Hospital, Boston, MA, USA and is virulent in a variety of plant and animal models of infection; strain M2 was originally isolated in 1975 from the gastrointestinal tract of a healthy CF1 mouse, University of Cincinnati College of Medicine, and Shriners Burns Institute, Cincinnati, OH, USA and is virulent in a burn mouse model of P. aeruginosa infection; and strain CP204 was isolated from a cystic fibrosis patient in 1989 at the National Jewish Medical and Research Center, Denver, CO, USA. All strains have been maintained at −80 °C in the laboratory of Michael Vasil, University of Colorado, School of Medicine.
(§4) The minimal inhibitory concentration (MIC) is defined as the lowest peptide concentration that inhibited bacterial growth. MICs were measured by a standard microtiter dilution method in Mueller Hinton (MH) medium. Briefly, cells were grown overnight at 37 °C in MH broth and were diluted in the same medium. […] The plates were incubated at 37 °C for 24 h, and the MICs were determined.

P. aeruginosa strain M2 = settings: source burn mouse model; Mueller-Hinton medium, 37 °C, 24 h, 5 × 10^5 CFU/mL; three sets of determinations
Description: as §3, §4

[5] = test system: P. aeruginosa strain PA14; settings: Mueller-Hinton medium, 37 °C, 24 h, 5 × 10^5 CFU/mL; three sets of determinations
Description: as §3, §4

P. aeruginosa strain PAK = settings: Mueller-Hinton medium, 37 °C, 24 h, 5 × 10^5 CFU/mL; three sets of determinations
Description: as §3, §4

[6] = test system: P. aeruginosa strain PAO1; settings: source human wound; Mueller-Hinton medium, 37 °C, 24 h, 5 × 10^5 CFU/mL; three sets of determinations
Description: as §3, §4

P. aeruginosa strain WR5 = settings: source burn patient; Mueller-Hinton medium, 37 °C, 24 h, 5 × 10^5 CFU/mL; three sets of determinations
Description: as §3, §4

[7] = test system: Pseudomonas aeruginosa (6 different isolates); settings: geometric mean of the MIC values from 6 different isolates of P. aeruginosa; Table 3B
Description: as §3, §4
Geometric mean of MIC values was calculated to provide an overall view of antimicrobial activity of different analogs.

human erythrocytes = assay: Hemolytic activity (HC50); format: cell-based; settings: for Hemolytic activity HC50: concentration giving 50% hemolysis after 18 h at 37 °C, 1% human erythrocytes in PBS pH 7.4, hemoglobin release at 570 nm, 100% control water (Figure 7)
Protocol: Hemoglobin release was determined spectrophotometrically at 570 nm.
From these plots, the HC50 values, the peptide concentration that produces 50% hemolysis of human red blood cells after 18 hours in the standard microtiter dilution method was determined.

Row | Structure (SMILES) | MIC 649 (A. baumannii strain 649) [µM] | MIC 759 (A. baumannii strain 759) [µM] | MIC 821 (A. baumannii strain 821) [µM] | MIC 884 (A. baumannii strain 884) [µM] | MIC ATCC19606 [1] [µM] | MIC 1012 (A. baumannii strain 1012) [µM] | MIC 689 (A. baumannii strain 689) [µM] | MIC 899 (A. baumannii strain 899) [µM] | MIC 964 (A. baumannii strain 964) [µM] | MIC 985 (A. baumannii strain 985) [µM] | MIC ATCC17978 [2] [µM] | MIC GM [3] [µM] | MIC CP204 [4] [µM] | MIC M2 (P. aeruginosa strain M2) [µM] | MIC PA14 [5] [µM] | MIC PAK (P. aeruginosa strain PAK) [µM] | MIC PAO1 [6] [µM] | MIC WR5 (P. aeruginosa strain WR5) [µM] | MIC GM [7] [µM] | Hemolytic activity HC50 (human erythrocytes) [µM] | further results
1 | CSCC[C@@H](NC(=O)[C@@H](Cc1c[nH]c2ccccc12)NC(=O)[C@@H](CC(C)C)NC(=O)[C@@H](C)N)C(=O)N[C@@H](C(=O)N[C@H](CC(C)C)C(=O)N[C@H](CCCCN)C(=O)N[C@H](CCCCN)C(=O)N[C@H](CCCCN)C(=O)N[C@@H](C(=O)N[C@H](CC(C)C)C(=O)N[C@H](CCCCN)C(=O)N[C@H](C)C(=O)N[C@H](CCCCN)C(=O)N[C@H](C)C(=O)N[C@H](CCCCN)C(=O)N[C@H](C)C(=O)N[C@H](CC(C)C)C(=O)N[C@H](CC(N)=O)C(=O)N[C@H](C)C(=O)N[C@@H](C(=O)N[C@H](CC(C)C)C(=O)N[C@@H](C(=O)NCC(=O)N[C@H](C)C(=O)N[C@H](CC(N)=O)C(=O)N[C@H](C)C(N)=O)C(C)C)C(C)C)C(C)C)[C@H](C)O [D-Dermaseptin S4 L7K,A14K] (H-[dA][dL][dW][dM][dT][dL][dK][dK][dK][dV][dL][dK][dA][dK][dA][dK][dA][dL][dN][dA][dV][dL][dV]G[dA][dN][dA]-NH2) | 0.7 (≈ 2 µg/mL) | 1.4 (≈ 3.99 µg/mL) | 0.7 (≈ 2 µg/mL) | 1.4 (≈ 3.99 µg/mL) | 0.7 (≈ 2 µg/mL) | 2.7 (≈ 7.7 µg/mL) | 0.7 (≈ 2 µg/mL) | 1.4 (≈ 3.99 µg/mL) | 2.7 (≈ 7.7 µg/mL) | 0.7 (≈ 2 µg/mL) | 0.7 (≈ 2 µg/mL) | 1.1 (≈ 3.14 µg/mL) | 1.4 (≈ 3.99 µg/mL) | 21.9 (≈ 62.4 µg/mL) | 5.5 (≈ 15.7 µg/mL) | 1.4 (≈ 3.99 µg/mL) | 5.5 (≈ 15.7 µg/mL) | 11.0 (≈ 31.4 µg/mL) | 4.9 (≈ 14 µg/mL) | 241 | 
2 | CSCC[C@@H](NC(=O)[C@@H](Cc1c[nH]c2ccccc12)NC(=O)[C@@H](CC(C)C)NC(=O)[C@@H](C)N)C(=O)N[C@@H](C(=O)N[C@H](CC(C)C)C(=O)N[C@H](CC(C)C)C(=O)N[C@H](CCCCN)C(=O)N[C@H](CCCCN)C(=O)N[C@@H](C(=O)N[C@H](CC(C)C)C(=O)N[C@H](CCCCN)C(=O)N[C@H](C)C(=O)N[C@H](C)C(=O)N[C@H](C)C(=O)N[C@H](CCCCN)C(=O)N[C@H](C)C(=O)N[C@H](CC(C)C)C(=O)N[C@H](CC(N)=O)C(=O)N[C@H](C)C(=O)N[C@@H](C(=O)N[C@H](CC(C)C)C(=O)N[C@@H](C(=O)NCC(=O)N[C@H](C)C(=O)N[C@H](CC(N)=O)C(=O)N[C@H](C)C(N)=O)C(C)C)C(C)C)C(C)C)[C@H](C)O [D-Dermaseptin S4] (H-[dA][dL][dW][dM][dT][dL][dL][dK][dK][dV][dL][dK][dA][dA][dA][dK][dA][dL][dN][dA][dV][dL][dV]G[dA][dN][dA]-NH2) | 1.4 (≈ 3.89 µg/mL) | 1.4 (≈ 3.89 µg/mL) | 2.8 (≈ 7.78 µg/mL) | 2.8 (≈ 7.78 µg/mL) | 2.8 (≈ 7.78 µg/mL) | 2.8 (≈ 7.78 µg/mL) | 1.4 (≈ 3.89 µg/mL) | 1.4 (≈ 3.89 µg/mL) | 1.4 (≈ 3.89 µg/mL) | 0.7 (≈ 1.94 µg/mL) | 2.8 (≈ 7.78 µg/mL) | 1.8 (≈ 5 µg/mL) | 11.3 (≈ 31.4 µg/mL) | 11.3 (≈ 31.4 µg/mL) | 22.5 (≈ 62.5 µg/mL) | 11.3 (≈ 31.4 µg/mL) | 11.3 (≈ 31.4 µg/mL) | 11.3 (≈ 31.4 µg/mL) | 12.6 (≈ 35 µg/mL) | 0.6 | Hemolytic activity Fold improvement in HC50 (human erythrocytes): 1.0 fold
3 | CC[C@@H](C)[C@@H](NC(=O)CNC(=O)[C@@H](CCCNC(=N)N)NC(=O)[C@@H](Cc1ccccc1)NC(=O)[C@H](NC(=O)[C@@H](Cc1c[nH]cn1)NC(=O)[C@@H](Cc1c[nH]cn1)NC(=O)[C@@H](Cc1ccccc1)NC(=O)[C@H](N)Cc1ccccc1)[C@H](C)CC)C(=O)N[C@@H](C(=O)N[C@H](Cc1c[nH]cn1)C(=O)N[C@@H](C(=O)N[C@H](CCCCN)C(=O)N[C@H](CCCCN)C(=O)N[C@@H](C(=O)N[C@@H](C(=O)N[C@H](Cc1c[nH]cn1)C(=O)N[C@H](CCCNC(=N)N)C(=O)N[C@H](CC(C)C)C(=O)N[C@@H](C(=O)N[C@@H](C(=O)NCC(N)=O)[C@H](C)O)C(C)C)[C@H](C)CC)[C@H](C)O)C(C)C)C(C)C [D-Piscidin 1 G13K] (H-[dF][dF][dH][dH][dI][dF][dR]G[dI][dV][dH][dV][dK][dK][dT][dI][dH][dR][dL][dV][dT]G-NH2) | 3.0 (≈ 7.93 µg/mL) | 5.9 (≈ 15.6 µg/mL) | 5.9 (≈ 15.6 µg/mL) | 5.9 (≈ 15.6 µg/mL) | 5.9 (≈ 15.6 µg/mL) | 5.9 (≈ 15.6 µg/mL) | 5.9 (≈ 15.6 µg/mL) | 5.9 (≈ 15.6 µg/mL) | 5.9 (≈ 15.6 µg/mL) | 3.0 (≈ 7.93 µg/mL) | 5.9 (≈ 15.6 µg/mL) | 5.2 (≈ 13.7 µg/mL) | 47.3 (≈ 125 µg/mL) | 11.8 (≈ 31.2 µg/mL) | 23.7 (≈ 62.6 µg/mL) | 11.8 (≈ 31.2 µg/mL) | 23.7 (≈ 62.6 µg/mL) | 23.7 (≈ 62.6 µg/mL) | 21.1 (≈ 55.8 µg/mL) | 7.0 | 
